Measured values reported in US11479784B2, “Modulation of seed vigor” (Syngenta Participations AG, priority 2012, dated 2022).

What was measured:
seeds of A12 = experiment: Sensitivity to low temperatures during germination on paper, pretreatment in GA3 solution; format: in vivo, Brassica oleracea; settings: pretreatment 10 d 10 C. in the light in 1 mM GA3, then non-germinated seeds 5 days at 20° C. in the light
Method: (§1) Two replicates of 50 seeds per treatment were incubated at 5° C. or 10° C. in the light as described before for a germination test on paper. Incubation was in water or in a 1 mM solution of GA3. After 10 days seeds that had germinated were removed. The boxes with the remaining non-germinated seeds were then placed at 20° C. in the light. After a further 5 days the number of germinated seeds was counted. As a comparison seeds of both A12 and SL101 were germinated at 20° C. in the light without a pretreatment. Germination percentage of these seeds was counted after 10 days.

seeds of SL101 = experiment: as above; format: in vivo, Brassica oleracea
Method: as §1

Measured: Percentage of germination of seeds

C=C1C[C@]23C[C@@]1(O)CC[C@H]2[C@@]12C=C[C@H](O)[C@@](C)(C(=O)O1)[C@H]2[C@@H]3C(=O)O [GA3]
100%: seeds of A12 | seeds of SL101; pretreatment 10 d 5 C. in the light in 1 mM GA3, then non-germinated seeds 5 days at 20° C. in the light | seeds of SL101; pretreatment 10 d 10 C. in the light in 1 mM GA3, then non-germinated seeds 5 days at 20° C. in the light
